Source: patent US20070043024A1, “Azacyclic compounds as inhibitors of sensory neurone specific channels” (priority 2003, published 2007)
Several values for one entry are separate records, joined by “and”; a condition that tells them apart may be missing. Equal values may be shown once.

biological target: T1, human Nav1.8 (hNav1.8) ion channel (Homo sapiens, UniProt Q9Y5Y9); assay: Inhibition of human Nav1.8 stably expressed in SH-SY-5Y cells (membrane potential dye fluorescence assay); format: cell-based; settings: IC50, Table 1; SH-SY-5Y hNav1.8 cells, inhibition of membrane depolarisation, FLIPR membrane potential dye, 250 nM TTX, test concentration range 100 μM-0.05 μM
T1 construct: expressed in transfected cells
T1 sequence (Q9Y5Y9 whole entry): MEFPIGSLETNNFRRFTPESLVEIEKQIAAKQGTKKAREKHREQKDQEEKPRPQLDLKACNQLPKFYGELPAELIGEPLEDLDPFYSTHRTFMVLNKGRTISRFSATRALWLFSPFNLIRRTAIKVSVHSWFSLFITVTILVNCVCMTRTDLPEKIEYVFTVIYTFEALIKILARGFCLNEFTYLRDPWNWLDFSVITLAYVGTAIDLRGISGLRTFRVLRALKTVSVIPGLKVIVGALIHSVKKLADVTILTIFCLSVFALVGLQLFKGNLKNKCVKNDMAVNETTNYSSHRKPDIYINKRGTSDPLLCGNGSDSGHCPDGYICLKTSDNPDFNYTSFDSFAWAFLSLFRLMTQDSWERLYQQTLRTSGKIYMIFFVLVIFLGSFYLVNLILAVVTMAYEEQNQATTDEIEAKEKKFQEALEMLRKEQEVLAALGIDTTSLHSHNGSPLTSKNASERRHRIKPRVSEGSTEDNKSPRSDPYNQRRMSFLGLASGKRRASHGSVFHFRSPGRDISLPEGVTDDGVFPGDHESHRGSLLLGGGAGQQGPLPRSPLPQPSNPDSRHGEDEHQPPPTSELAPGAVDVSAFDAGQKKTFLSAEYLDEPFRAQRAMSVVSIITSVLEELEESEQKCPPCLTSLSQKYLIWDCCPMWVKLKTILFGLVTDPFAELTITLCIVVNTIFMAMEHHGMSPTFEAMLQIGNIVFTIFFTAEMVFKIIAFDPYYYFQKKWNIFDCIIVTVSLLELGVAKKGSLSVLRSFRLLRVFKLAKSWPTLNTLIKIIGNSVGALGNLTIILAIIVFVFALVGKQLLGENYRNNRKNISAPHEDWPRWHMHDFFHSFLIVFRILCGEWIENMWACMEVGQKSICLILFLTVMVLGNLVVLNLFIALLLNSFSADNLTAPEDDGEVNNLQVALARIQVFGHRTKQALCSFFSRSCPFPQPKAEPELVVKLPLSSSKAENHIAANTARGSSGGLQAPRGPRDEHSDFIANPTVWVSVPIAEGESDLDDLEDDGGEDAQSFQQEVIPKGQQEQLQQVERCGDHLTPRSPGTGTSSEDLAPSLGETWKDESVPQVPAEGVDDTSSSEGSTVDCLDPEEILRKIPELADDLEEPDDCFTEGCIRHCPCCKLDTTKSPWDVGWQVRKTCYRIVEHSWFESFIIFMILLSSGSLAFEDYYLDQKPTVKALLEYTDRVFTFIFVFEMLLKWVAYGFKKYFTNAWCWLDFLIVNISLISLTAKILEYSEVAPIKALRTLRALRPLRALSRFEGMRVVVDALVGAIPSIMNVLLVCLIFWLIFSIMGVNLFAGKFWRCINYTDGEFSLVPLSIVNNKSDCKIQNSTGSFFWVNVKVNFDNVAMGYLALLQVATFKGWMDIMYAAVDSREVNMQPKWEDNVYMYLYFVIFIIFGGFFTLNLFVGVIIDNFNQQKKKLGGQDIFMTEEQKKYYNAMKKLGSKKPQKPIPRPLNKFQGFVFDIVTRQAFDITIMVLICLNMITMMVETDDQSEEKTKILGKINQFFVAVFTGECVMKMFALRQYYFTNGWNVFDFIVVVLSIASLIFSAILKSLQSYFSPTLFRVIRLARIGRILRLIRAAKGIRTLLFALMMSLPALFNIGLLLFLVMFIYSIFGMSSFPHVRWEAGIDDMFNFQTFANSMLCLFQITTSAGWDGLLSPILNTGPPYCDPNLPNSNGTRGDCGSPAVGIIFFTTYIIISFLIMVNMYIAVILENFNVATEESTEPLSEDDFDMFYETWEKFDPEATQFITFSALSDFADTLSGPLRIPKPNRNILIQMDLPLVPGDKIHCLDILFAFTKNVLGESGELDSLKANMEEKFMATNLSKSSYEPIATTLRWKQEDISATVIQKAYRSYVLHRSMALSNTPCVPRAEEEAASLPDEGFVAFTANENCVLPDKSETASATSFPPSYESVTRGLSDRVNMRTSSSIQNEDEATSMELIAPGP

`O=C(CN1CCc2cccc(O)c2C1)NCCC(c1ccccc1)c1ccccc1` [Example 27, N-(3,3-Diphenyl-propyl)-2-(8-hydroxy-3,4-dihydro-1H-isoquinolin-2-yl)-acetamide] showed an IC50 of 1020 nM.

same assay, conditions: Table 1; SH-SY-5Y hNav1.8 cells, inhibition of membrane depolarisation, FLIPR membrane potential dye, 250 nM TTX, test concentration range 100 μM-0.05 μM; read-out: IC50

First: O=C(CN1CCc2ccccc2C1)NC(c1ccccc1)c1ccccc1 [Example 14, N-Benzyhydryl-2-(3,4-dihydro-1H-isoquinolin-2-yl)-acetamide]
Second: c1ccc(C(CCNCCN2CCc3ccccc3C2)c2ccccc2)cc1 [Example 46, [2-(3,4-Dihydro-1H-isoquinolin-2-yl)-ethyl]-(3,3-diphenyl-propyl)-amine]
The IC50 of the first is 5.5-fold higher: 1590 nM for the first, 290 nM for the second.

Going from `O=C(CN(Cc1ccccc1)Cc1ccccc1)N1CCc2ccccc2C1` [Example 35, 2-Dibenzylamino-1-(3,4-dihydro-1H-isoquinolin-2-yl)-ethanone] to `COc1ccc2c(c1)CN(CC(=O)N(Cc1ccccc1)Cc1ccccc1)CC2` [Example 87, N,N-Dibenzyl-2-(7-methoxy-3,4-dihydro-1H-isoquinolin-2-yl)-acetamide], the IC50 falls from 4860 nM to 1100 nM (4.4-fold). The second is the more potent here.

First: Oc1cccc2c1CN(Cc1cc(C(F)(F)F)cc(C(F)(F)F)c1)CC2 [Example 95, 2-(3,5-Bis-trifluoromethyl-benzyl)-1,2,3,4-tetrahydro-isoquinolin-8-ol]
Second: CC(CN1CCc2cccc(O)c2C1)OCc1ccccc1 (centres unmarked) [Example 48, 2-(2-Benzyloxy-propyl)-1,2,3,4-tetrahydro-isoquinolin-8-ol]
The IC50 of the first is 2.8-fold lower: 1710 nM for the first, 4840 nM for the second. The first is the more potent here.

Going from `COc1ccc2c(c1)CN(CC(=O)NCCC(c1ccccc1)c1ccccc1)CC2` [Example 86, N-(3,3-Diphenyl-propyl)-2-(7-methoxy-3,4-dihydro-1H-isoquinolin-2-yl)-acetamide] to `Fc1ccc(C(CCCN2CCc3ccccc3C2)c2ccc(F)cc2)cc1` [Example 9, 2-[4,4-Bis-(4-fluoro-phenyl)-butyl]-1,2,3,4-tetrahydro-isoquinoline], the IC50 falls from 1460 nM to 430 nM (3.4-fold). The second is the more potent here.

same assay, conditions: Table 2 (compound numbers of the list in the description); SH-SY-5Y hNav1.8 cells, inhibition of membrane depolarisation, FLIPR membrane potential dye, 250 nM TTX, test concentration range 100 μM-0.05 μM; read-out: IC50

Going from `COc1cccc2c1CN(CC(=O)NC1c3ccccc3Oc3ccccc31)CC2` [Compound 180, 2-(8-Methoxy-3,4-dihydro-1H-isoquinolin-2-yl)-N-(9H-xanthen-9-yl)-acetamide] to `COc1cccc2c1CN(CCC(=O)N1c3ccccc3Oc3ccccc31)CC2` [Compound 189, 3-(8-Methoxy-3,4-dihydro-1H-isoquinolin-2-yl)-1-phenoxazin-10-yl-propan-1-one], the IC50 falls from 5190 nM to 510 nM (10-fold). The second is the more potent here.

`CS(=O)(=O)Oc1cccc2c1CN(CC(=O)N1c3ccccc3Oc3ccccc31)CC2` [Compound 191, Methanesulfonic acid 2-(2-oxo-2-phenoxazin-10-yl-ethyl)-1,2,3,4-tetrahydro-isoquinolin-8-yl ester] and `CS(=O)(=O)Nc1cccc2c1CN(CC(=O)N1c3ccccc3Oc3ccccc31)CC2` [Compound 198, N-[2-(2-Oxo-2-phenoxazin-10-yl-ethyl)-1,2,3,4-tetrahydro-isoquinolin-8-yl]-methanesulfonamide] are within 1.5-fold of each other in IC50: 1270 nM for the first, 1830 nM for the second.

`Cc1cc2cc(Cl)ccc2n1CCCNC(=O)CN1CCc2cccc(O)c2C1` [Compound 131, N-[3-(5-Chloro-2-methyl-indol-1-yl)-propyl]-2-(8-hydroxy-3,4-dihydro-1H-isoquinolin-2-yl)-acetamide] and `CSc1ccc2c(c1)N(C(=O)CN1CCc3cccc(O)c3C1)c1ccccc1S2` [Compound 158, 2-(8-Hydroxy-3,4-dihydro-1H-isoquinolin-2-yl)-1-(2-methylsulfanyl-phenothiazin-10-yl)-ethanone] are within 1.5-fold of each other in IC50: 3610 nM for the first, 4590 nM for the second.

Going from `Nc1cccc2c1CCN(CCC(=O)NCCC(c1ccccc1)c1ccccc1)C2` [Compound 122, 3-(5-Amino-3,4-dihydro-1H-isoquinolin-2-yl)-N-(3,3-diphenyl-propyl)-propionamide] to `Nc1cccc2c1CN(CC(=O)NCC(c1ccccc1)c1ccccc1)CC2` [Compound 111, 2-(8-Amino-3,4-dihydro-1H-isoquinolin-2-yl)-N-(2,2-diphenyl-ethyl)-acetamide], the IC50 rises from 960 nM to 3880 nM (4-fold).

First: Nc1cccc2c1CN(CC(=O)N(Cc1ccccc1)Cc1ccccc1)C2 [Compound 101, 2-(4-Amino-1,3-dihydro-isoindol-2-yl)-N,N-dibenzyl-acetamide]
Second: CCOc1cccc2c1CN(CC(=O)N(Cc1ccccc1)Cc1ccccc1)CC2 [Compound 91, N,N-Dibenzyl-2-(8-ethoxy-3,4-dihydro-1H-isoquinolin-2-yl)-acetamide]
The IC50 of the first is 1.6-fold lower: 4260 nM for the first, 6980 nM for the second. The first is the more potent here.

First: CC(=O)Nc1ccc(C(CCNC(=O)CN2CCc3ccccc3C2)c2ccccc2)cc1NC(C)=O (centres unmarked) [Compound 116, N-[3-(3,4-Bis-acetylamino-phenyl)-3-phenyl-propyl]-2-(3,4-dihydro-1H-isoquinolin-2-yl)-acetamide]
Second: COc1cccc2c1CN(CC(=O)NCCCC(c1ccccc1)c1ccccc1)CC2 [Compound 81, N-(4,4-diphenyl-butyl)-2-(8-methoxy-3,4-dihydro-1H-isoquinolin-2-yl)-acetamide]
The IC50 of the first is 16-fold higher: 22200 nM for the first, 1400 nM for the second.

Going from `O=C(CN1CCc2cccnc2C1)N1c2ccccc2Oc2ccccc21` [Compound 173, 2-(5,8-Dihydro-6H-[1,7]naphthyridin-7-yl)-1-phenoxazin-10-yl-ethanone] to `O=C(CN1CCc2cccc(O)c2C1)N1c2ccccc2Oc2ccccc21` [Compound 144, 2-(8-Hydroxy-3,4-dihydro-1H-isoquinolin-2-yl)-1-phenoxazin-10-yl-ethanone], the IC50 falls from 5640 nM to 500 nM (11-fold). The second is the more potent here.

First: COc1cccc2c1CN(CC(=O)n1c3ccccc3c3ccccc31)CC2 [Compound 204, 1-Carbazol-9-yl-2-(8-methoxy-3,4-dihydro-1H-isoquinolin-2-yl)-ethanone]
Second: COc1cccc2c1CN(CC(=O)N(c1ccccc1)c1ccccc1)CC2 [Compound 150, 2-(8-Methoxy-3,4-dihydro-1H-isoquinolin-2-yl)-N,N-diphenyl-acetamide]
The IC50 of the first is 6-fold higher: 10700 nM for the first, 1790 nM for the second.

`O=C(CN1Cc2cccc(O)c2C1)N1c2ccccc2Oc2ccccc21` [Compound 202, 2-(4-Hydroxy-1,3-dihydro-isoindol-2-yl)-1-phenoxazin-10-yl-ethanone] and `N#Cc1cccc2c1CN(CC(=O)N1c3ccccc3Oc3ccccc31)C2` [Compound 220, 2-(2-Oxo-2-phenoxazin-10-yl-ethyl)-2,3-dihydro-1H-isoindole-4-carbonitrile] are within 1.5-fold of each other in IC50: 680 nM for the first, 800 nM for the second.

First: COc1cccc2c1CN(CC(=O)N1c3ccccc3OCC1c1ccc(F)cc1)CC2 (centres unmarked) [Compound 215, 1-[3-(4-Fluoro-phenyl)-2,3-dihydro-benzo[1,4]oxazin-4-yl]-2-(8-methoxy-3,4-dihydro-1H-isoquinolin-2-yl)-ethanone]
Second: COc1ccc(C2COc3ccccc3N2C(=O)CN2CCc3cccc(OC)c3C2)cc1 (centres unmarked) [Compound 212, 2-(8-Methoxy-3,4-dihydro-1H-isoquinolin-2-yl)-1-[3-(4-methoxy-phenyl)-2,3-dihydro-benzo[1,4]oxazin-4-yl]-ethanone]
The IC50 of the first is 4.6-fold lower: 1110 nM for the first, 5060 nM for the second. The first is the more potent here.

`Nc1cccc2c1CN(CCCC(c1ccc(F)cc1)c1ccc(F)cc1)C2` [Compound 102, 2-[4,4-Bis-(4-fluoro-phenyl)-butyl]-2,3-dihydro-1H-isoindol-4ylamine] and `COc1cccc2c1CN(CC(=O)NCCCC(c1ccccc1)c1ccccc1)C2` [Compound 82, N-(4,4-diphenyl-butyl)-2-(4-methoxy-1,3-dihydro-isoindol-2-yl)-acetamide] are within 1.5-fold of each other in IC50: 860 nM for the first, 1060 nM for the second.

First: COc1cc2c(cc1OC)CN(CCNC(=O)N1c3ccccc3Sc3ccccc31)CC2 [Compound 161, Phenothiazine-10-carboxylic acid [2-(6,7-dimethoxy-3,4-dihydro-1H-isoquinolin-2-yl)-ethyl]-amide]
Second: COc1cc2c(cc1OC)CN(CC(=O)N1c3ccccc3Sc3ccc(C(C)=O)cc31)CC2 [Compound 155, 1-(2-Acetyl-phenothiazin-10-yl)-2-(6,7-dimethoxy-3,4-dihydro-1H-isoquinolin-2-yl)-ethanone]
The IC50 of the first is 5.6-fold lower: 1110 nM for the first, 6260 nM for the second.

Going from `O=C(CN1CCc2ccc(O)cc2C1)N1c2ccccc2Oc2ccccc21` [Compound 193, 2-(7-Hydroxy-3,4-dihydro-1H-isoquinolin-2-yl)-1-phenoxazin-10-yl-ethanone] to `O=C(CCN1CCc2cccc(O)c2C1)N1c2ccccc2Oc2ccccc21` [Compound 190, 3-(8-Hydroxy-3,4-dihydro-1H-isoquinolin-2-yl)-1-phenoxazin-10-yl-propan-1-one], the IC50 falls from 3170 nM to 530 nM (6-fold). The second is the more potent here.

Going from `COc1cc2c(cc1OC)CN(CC(=O)NCC(c1ccccc1)c1ccccc1)CC2` [Compound 126, 2-(6,7-Dimethoxy-3,4-dihydro-1H-isoquinolin-2-yl)-N-(2,2-diphenyl-ethyl)-acetamide] to `COc1cc2c(cc1OC)CN(CC(=O)N1c3ccccc3Sc3ccc(C(F)(F)F)cc31)CC2` [Compound 154, 2-(6,7-Dimethoxy-3,4-dihydro-1H-isoquinolin-2-yl)-1-(2-trifluoromethyl-phenothiazin-10-yl)-ethanone], the IC50 rises from 1930 nM to 12400 nM (6.4-fold). The first is the more potent here.

Compared with `CC(=O)c1ccc2c(c1)N(C(=O)CN1CCc3cccc(O)c3C1)c1ccccc1S2` [Compound 147, 1-(2-Acetyl-phenothiazin-10-yl)-2-(8-hydroxy-3,4-dihydro-1H-isoquinolin-2-yl)-ethanone], `O=C(CN1CCc2cccc(O)c2C1)N1c2ccccc2Sc2ccccc21` [Compound 139, 2-(8-Hydroxy-3,4-dihydro-1H-isoquinolin-2-yl)-1-phenothiazin-10-yl-ethanone] is 1.6-fold lower in IC50: 2040 nM for the first, 1250 nM for the second. The second is the more potent here.

In the case of `COc1ccc2c(c1)CCCN(C(=S)NC(c1ccccc1)c1ccccc1)C2` [Compound 76, 7-methoxy-1,3,4,5-tetrahydro-benzo[c]azepine-2-carbothioic acid benzhydryl-amide], the IC50 is reported as 14800 nM.

`COc1cccc2c1CN(CC(=O)N1c3ccccc3Oc3ccccc31)CC2` [Compound 72, 2-(8-methoxy-3,4-dihydro-1H-isoquinolin-2-yl)-1-phenoxazin-10-yl-ethanone] was tested, and the IC50 was 490 nM and 1290 nM.
